Here are results for 26 compounds from ChEMBL document CHEMBL5375944, “Discovery of Potent Agonists for the Predominant Variant of the Orphan MAS-Related G Protein-Coupled Receptor X4 (MRGPRX4)” (J Med Chem, 2023).

Molecules are shown by their SMILES. Values after ≈ are worked out from the molar mass of the structure shown.

Data set [1] can be described thus: Agonist activity at MRGPRX4 83L (unknown origin) expressed in HEK293 cells co-expressing Gq assessed as change in intracellular calcium level by FLIPR assay. In kind it is cell-based. Conditions: Homo sapiens. A general note: Calcium flux is commonly read through the fluorescence of an indicator in the cells.
Data set [2] in a line: Agonist activity at MRGPRX4 83S (unknown origin) expressed in CHO-K1 cells assessed as induction of beta-arrestin recruitment measured after 90 mins by luminescence assay. The class given is cell-based. Conditions: Homo sapiens, CHO-K1, 1.5 h. On the technique in general: Arrestin recruitment assays detect the binding of arrestin to an activated receptor.
Data set [3] can be described thus: Agonist activity at MRGPRX4 83S in human LN229 glioblastoma cells assessed as change in intracellular calcium level by calcium mobilization assay. The class given is cell-based.
Data set [4] in a line: Agonist activity at MRGPRX4 83S in human LN229 glioblastoma cells assessed as change in intracellular calcium level at 10 uM by calcium mobilization assay relative to control.
A short description of data set [5]: Agonist activity at MRGPRX4 83L (unknown origin) expressed in human 1321N1 glioblastoma cells assessed as change in intracellular calcium level by calcium mobilization assay. In kind it is cell-based.
The nature of data set [6]: Agonist activity at MRGPRX4 83L (unknown origin) expressed in CHO cells assessed as induction of beta-arrestin recruitment measured after 90 mins by luminescence assay. The class given is cell-based. Conditions: Homo sapiens, 1.5 h.
For another data set, the system named is LN-229. The experiment in a line: Cytotoxicity against human LN-229 glioblastoma cells assessed as cell viability upto 30 uM measured after 3 days by MTT assay. Conditions: ln-229, 72 h, time 3 day. The class given is toxicity, cell-based. For orientation: Tetrazolium assays rely on reduction of a dye to a coloured formazan, in cell work by metabolically active cells.

The nature of data set [7]: Metabolic stability of the compound in human liver microsomes assessed as half life at 1 uM in presence of NADPH by LC-MS analysis. The class given is ADME, Microsome.
Data set [8] addresses Mas-related G-protein coupled receptor member X3 (Homo sapiens, UniProt Q96LB0). The experiment in a line: Agonist activity at MRGPRX3 (unknown origin) by beta-arrestin recruitment assay. The class given is functional.
Data set [9] addresses G-protein coupled receptor 143 (Homo sapiens, UniProt P51810). The experiment in a line: Agonist activity at GPR143 (unknown origin) by beta-arrestin recruitment assay.
Data set [10] has as its target Mas-related G-protein coupled receptor member X1 (Homo sapiens, UniProt Q96LB2). The experiment in a line: Agonist activity at MRGPRX1 (unknown origin) by beta-arrestin recruitment assay.
Data set [11] is described as follows: Agonist activity at MRGPRX4 83L (unknown origin) expressed in HEK293 cells co-expressing Galpha15 assessed as change in intracellular calcium level by FLIPR assay. The class given is cell-based. Conditions: Homo sapiens.
Data set [12] can be described thus: Agonist activity at MRGPRX4 83L (unknown origin) expressed in human 1321N1 glioblastoma cells assessed as change in intracellular calcium level 10 uM by calcium mobilization assay relative to control.
A short description of data set [13]: Agonist activity at MRGPRX4 83S (unknown origin) expressed in HEK293 cells co-expressing Gq assessed as change in intracellular calcium level by FLIPR assay. In kind it is cell-based. Conditions: Homo sapiens.
Data set [14] in a line: Kinetic solubility of compound in PBS at pH 7.4 incubated for 3 days. In kind it is physicochemical. Conditions: time 3 day, read-out: Kinetic_solubility.

By EC50 is commonly meant the concentration at which the effect is half-maximal. In general, half-life refers to the time needed for the level to fall by half in the phase considered.

Mas-related G-protein coupled receptor member X3, sequence (Q96LB0 whole entry): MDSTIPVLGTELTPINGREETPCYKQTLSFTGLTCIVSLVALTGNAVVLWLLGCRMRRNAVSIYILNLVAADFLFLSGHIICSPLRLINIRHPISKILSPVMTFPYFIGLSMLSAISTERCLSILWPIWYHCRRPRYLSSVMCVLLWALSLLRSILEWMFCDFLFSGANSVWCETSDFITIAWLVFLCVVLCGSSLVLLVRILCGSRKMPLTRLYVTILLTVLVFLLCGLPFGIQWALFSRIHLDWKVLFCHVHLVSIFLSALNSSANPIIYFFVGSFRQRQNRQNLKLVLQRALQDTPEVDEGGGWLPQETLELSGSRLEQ
Mas-related G-protein coupled receptor member X1, sequence (Q96LB2 whole entry): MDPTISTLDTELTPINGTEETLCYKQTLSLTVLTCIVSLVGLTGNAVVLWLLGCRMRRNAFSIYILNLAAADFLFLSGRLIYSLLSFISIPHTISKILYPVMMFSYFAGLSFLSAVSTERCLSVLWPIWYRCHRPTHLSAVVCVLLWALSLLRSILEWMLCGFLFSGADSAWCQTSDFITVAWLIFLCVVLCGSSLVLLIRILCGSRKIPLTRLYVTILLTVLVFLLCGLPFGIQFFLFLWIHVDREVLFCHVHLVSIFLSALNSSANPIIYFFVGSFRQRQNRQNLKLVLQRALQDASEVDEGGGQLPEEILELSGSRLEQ
G-protein coupled receptor 143, sequence (P51810 whole entry): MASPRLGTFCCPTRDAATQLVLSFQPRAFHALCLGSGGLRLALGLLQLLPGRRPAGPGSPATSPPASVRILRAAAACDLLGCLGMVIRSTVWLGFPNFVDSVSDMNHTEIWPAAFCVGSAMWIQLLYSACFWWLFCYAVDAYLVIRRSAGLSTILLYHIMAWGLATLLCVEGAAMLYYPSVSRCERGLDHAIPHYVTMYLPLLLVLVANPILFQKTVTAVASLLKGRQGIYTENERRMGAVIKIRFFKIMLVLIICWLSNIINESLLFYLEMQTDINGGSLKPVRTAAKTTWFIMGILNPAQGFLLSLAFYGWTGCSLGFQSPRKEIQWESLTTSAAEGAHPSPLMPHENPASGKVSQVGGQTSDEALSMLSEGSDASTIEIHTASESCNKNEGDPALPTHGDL

With `O=C(O)[C@@H](Cc1ccccc1)NC(=O)C12CC3CC(CC(C3)C1)C2`, the EC50 is 0.581 µM in [1]; 64.1 µM in data set [2]; above 10 µM in [3]; 0.126 µM in [5]; 6.7 µM in [6]. The Activity in [4] came to 1%.

Regarding `C#CCn1c(=O)c2[nH]c(C(C)Cc3ccccc3)nc2n(CCCCP(=O)(O)O)c1=O` (configuration not stated), the EC50 came to 0.0277 µM in data set [2], 0.0345 µM in data set [3], 6.17 µM in data set [5] and 3.94 µM in data set [6].

Take `C#CCn1c(=O)c2c(nc(C#Cc3cccc(OC)c3)n2C)n(CCCOP(=O)(O)O)c1=O`: the EC50 in data set [2], in [3], in data set [5] and in data set [6] was above 10 µM in each case.

As for `COc1cccc(CCc2nc3c([nH]2)c(=O)n(CC2CCC2)c(=O)n3CCCCP(=O)(O)O)c1`, the EC50 in data set [2] was 0.0689 µM; in [3] it was 0.0599 µM; in data set [5], 1.6 µM; in data set [6] it was above 10 µM.

For `C#CCn1c(=O)c2c(nc(CCc3cccc(OC)c3)n2C)n(CCCCP(=O)(O)O)c1=O`, the Activity result in the data set with LN-229 is listed as “Non-Toxic”. In addition, the EC50 turned out to be 0.03 µM in [2], 0.0192 µM in data set [3], 0.333 µM in data set [5] and 6.28 µM in data set [6]. Further, the half-life at 1 µM in data set [7] was above 16 h.

Consider `C#CCn1c(=O)c2c(nc(-c3cccc(OC)c3)n2C)n(CCCOP(=O)(O)O)c1=O`, for which the EC50 in [2], in [3], in data set [5] and in data set [6] was above 10 µM throughout.

As to `C#CCn1c(=O)c2c(nc(/C=C/c3cccc(OC)c3)n2C)n(CCCOP(=O)(O)O)c1=O`, the EC50 in data set [8], in data set [9] and in data set [10] was above 10 µM each time.

Consider `C#CCn1c(=O)c2c(nc(CCc3cccc(OC)c3)n2C)n(CCCOP(=O)(O)O)c1=O`, for which the EC50 is 0.374 µM in data set [2], 0.238 µM in data set [3], 0.574 µM in data set [5] and above 10 µM in data set [6].

With `C#CCn1c(=O)c2[nH]c(CCc3cccc(OC)c3)nc2n(CCCO)c1=O`, the EC50 in data set [2], in data set [3], in data set [5] and in data set [6] was above 10 µM in each case.

Take `C[C@H](CCC(=O)O)[C@H]1CC[C@H]2[C@@H]3CC[C@@H]4C[C@H](O)CC[C@]4(C)[C@H]3C[C@H](O)[C@]12C` [DEOXYCHOLIC ACID]: the EC50 worked out at 2.6 µM in [11]; 1.68 µM in data set [2]; 169 µM in data set [3]; 11.2 µM in data set [5]; 24.6 µM in data set [6].

On to `C#CCn1c(=O)c2[nH]c([C@@H]3C[C@H]3c3ccccc3)nc2n(CCCCP(=O)(O)O)c1=O`, for which the EC50 in data set [2], in [3], in [5] and in data set [6] was above 10 µM each time.

As for `C[C@H](CCC(=O)NCCS(=O)(=O)O)[C@H]1CC[C@H]2[C@@H]3CC[C@@H]4C[C@H](O)CC[C@]4(C)[C@H]3C[C@H](O)[C@]12C` [TAURODEOXYCHOLIC ACID], the EC50 in data set [1] was 14.1 µM; in data set [2], 54.5 µM; in data set [3], above 10 µM; in data set [5], above 10 µM; in data set [6], 55.7 µM. Besides, the Activity was found to be 6% in [4] and 1% in data set [12].

For `C[C@]12C[C@@H]3C[C@](C)(C1)C[C@@](C(=O)N[C@H](Cc1ccccc1)C(=O)O)(C3)C2`, the EC50 in data set [13] is above 10 µM; in [1], 0.149 µM; in data set [2], 3.98 µM; in [3], 13.3 µM; in data set [5], 0.00656 µM; in data set [6], 0.548 µM.

Take `C#CCn1c(=O)c2[nH]c(COc3ccccc3)nc2n(CCCCP(=O)(O)O)c1=O`: the half-maximal effective concentration (EC50) in [2] was 1.85 µM; in data set [3], above 10 µM; in [5], above 10 µM; in [6], above 10 µM.

`C[C@H](CCC(=O)O)[C@H]1CC[C@H]2[C@@H]3[C@@H](O)C[C@@H]4C[C@H](O)CC[C@]4(C)[C@H]3CC[C@]12C` [URSODIOL]: the EC50 in [11] came out at 4.93 µM; in data set [2] it was 3.27 µM; in [3] it was 47.5 µM; in data set [5], 41.1 µM; in data set [6], 33.8 µM.

Take `C#CCn1c(=O)c2[nH]c(CCc3cccc(OC)c3)nc2n(CCCOC(C)=O)c1=O`: the EC50 in [2], in data set [3], in data set [5] and in data set [6] was above 10 µM throughout.

With `C#CCn1c(=O)c2[nH]c(CCc3cccc(OC)c3)nc2n(CCCCS(=O)(=O)O)c1=O`, the EC50 in data set [2], in data set [3], in data set [5] and in data set [6] was above 10 µM in each case.

`C#CCn1c(=O)c2[nH]c(C(C)Cc3ccccc3)nc2n(CCCCP(=O)(O)OCC)c1=O` (configuration not stated): the EC50 in [2], in data set [3], in data set [5] and in [6] was above 10 µM in each case.

`C#CCn1c(=O)c2[nH]c(/C=C/c3cccc(OC)c3)nc2n(CCCCP(=O)(O)O)c1=O`: the EC50 was 0.2 µM in data set [2], 0.0116 µM in data set [3], above 10 µM in [5] and above 10 µM in [6].

Turning to `CCn1c(=O)c2[nH]c(CCc3cccc(OC)c3)nc2n(CCCCP(=O)(O)O)c1=O`, the EC50 in [2] is 1.19 µM; in data set [3] it was 0.214 µM; in data set [5] it was 3.8 µM; in data set [6], above 10 µM.

On to `CC(C)[C@H]1CC[C@H](C(=O)N[C@H](Cc2ccccc2)C(=O)O)CC1` [NATEGLINIDE], for which the EC50 in data set [13] is above 10 µM; in data set [1], 4.72 µM; in data set [2], 28.4 µM; in data set [3] it was above 10 µM; in data set [5], 0.198 µM; in [6], 4.09 µM. Besides, the Activity in data set [4] was 0%.

Take `C#CCn1c(=O)c2[nH]c(CCc3cccc(OC)c3)nc2n(CCCCP(=O)(O)O)c1=O`: the Activity result in the data set on LN-229 is on record as “Non-Toxic”. For the same compound, the solubility kinetic at 72 h in data set [14] was found to be 218 µM (≈ 100 µg/mL). Further, the EC50 in [2] came out at 0.032 µM; in data set [3] it was 0.0112 µM; in data set [5], 0.435 µM; in [6] it was 5.71 µM. In data set [7], the half-life at 1 µM is above 4.5 h.

With `C#CCn1c(=O)c2[nH]c(CCc3ccccc3)nc2n(CCCCP(=O)(O)O)c1=O`, the EC50 was 0.399 µM in data set [2], 0.134 µM in data set [3], 3.25 µM in data set [5] and above 10 µM in data set [6].

For `C#CCn1c(=O)c2c(nc(/C=C/c3cccc(OC)c3)n2C)n(CCCO)c1=O`, the EC50 in data set [3] is above 10 µM.

Turning to `C#CCn1c(=O)c2[nH]c(CCc3cccc(OC)c3)nc2n(CCCCP(=O)(OCC)OCC)c1=O`, the 50% effective concentration (EC50) in data set [2], in data set [3], in data set [5] and in data set [6] was above 10 µM each time.

Consider `C#CCn1c(=O)c2[nH]c(CCc3cccc(OC)c3)nc2n(CCCCC(=O)O)c1=O`, for which the EC50 in [2] was 6.72 µM; in data set [3] it was above 10 µM; in data set [5], above 10 µM; in [6], above 10 µM.
